Test results as given in patent US11648289B2, “Antibacterial method” (priority 2016, dated 2023).
In brackets after ≈: the same amount, converted by molar mass. Like-named read-outs stand apart in the source and are kept apart here. No end group written: not given here.

B1: GarKS: Garvicin KS is made up of 3 peptides (SEQ ID NO:43, 44, 45) (peptide, listed as Lactococcus garvieae)
chain 1: MGAIIKAGAKIVGKGVLGGGASWLGWNVGEKIWK
chain 2: MGAIIKAGAKIIGKGLLGGAAGGATYGGLKKIFG
chain 3: MGAIIKAGAKIVGKGALTGGGVWLAEKLFGGK

Assays:
[1] = tested on: SH 4015; experiment: microbe, parasite or virus in culture
Experimental: (§1) All the strains (see below) used in minimal inhibitory concentration (MIC) assays (Ovchinnikov et al., 2017, Front Microbiol., 8, p774, doi:10.3389/fmicb.2017.00774) were grown in BHI medium (Oxoid) at 30° C. without shaking. The tested strains were obtained from the LMG collection. […] NisinZ and micrococcin P1 were purified from source. Synthesized peptides were solubilized to concentrations of 10.0-0.1 mg/ml in 0.1% (vol/vol) trifluoroacetic acid and stored at −20° C. until use. Garvicin KS is made up of 3 peptides:
(§2) Bacteriocin activity was determined using a microtitre plate assay. The plates were incubated at 30° C. for 8 h and the growth was measured spectrophotometrically at 600 nm (A600) with 15 min intervals using SPECTROstarNano (BMG LABTECH, Germany). The MIC was defined as the bacteriocin concentration that inhibited the growth of the indicator strain by at least 50% in 200 μl culture (i.e., 50% of the turbidity of the control culture without bacteriocin).

[2] = tested on: SH 4016; experiment: microbe, parasite or virus in culture
Experimental: as §1, §2

[3] = tested on: Sa 3242; experiment: microbe, parasite or virus in culture
Experimental: as §1, §2

[4] = tested on: Sa 3328; experiment: microbe, parasite or virus in culture
Experimental: as §1, §2

[5] = tested on: Sa3323; experiment: microbe, parasite or virus in culture
Experimental: as §1, §2

[6] = tested on: Sa ATCC 33591; experiment: microbe, parasite or virus in culture
Experimental: as §1, §2

[7] = tested on: Sa3324; experiment: microbe, parasite or virus in culture
Experimental: as §1, §2

[8] = tested on: SP 4013; experiment: organism not typed
Experimental: as §1, §2

[9] = tested on: SP 4012; experiment: organism not typed
Experimental: as §1, §2

[10] = tested on: SP 4014; experiment: organism not typed
Experimental: as §1, §2

[11] = tested on: KAVA; experiment: MIC microtitre plate assay, pathogenic isolates; format: cell-based
Experimental: The tested strains were obtained from the LMG collection. […] NisinZ and micrococcin P1 were purified from source. […] Garvicin KS is made up of 3 peptides:
Bacteriocin activity was determined using a microtitre plate assay. The plates were incubated at 30° C. for 8 h and the growth was measured spectrophotometrically at 600 nm (A600) with 15 min intervals using SPECTROstarNano (BMG LABTECH, Germany).

[12] = tested on: E. faecium (2)
Experimental: as §1, §2

[13] = tested on: S. pseudointermedius (3)
Experimental: as §1, §2

[14] = tested on: E. faecalis (2); conditions: 2
Experimental: as §1, §2

[15] = tested on: E. hirae (4)
Experimental: as §1, §2

[16] = tested on: Listeria spp. (3)
Experimental: as §1, §2

[17] = tested on: EntEJ97/EntK1 resistant mutants of E. faecalis and E. faecium; experiment: Challenge of EntEJ97/EntK1 resistant mutants with non-related bacteriocins; format: cell-based; conditions: all HR and LR mutants, compared to WT
Source text: To analyze whether this active site is important for bacteriocin sensitivity, we changed the invariant residues in this motif —H18-E19-F20-G21-H22—one by one and altogether in the enterococcal RseP (invariant residues underlined) to alanine and then assessed for bacteriocin sensitivity.

Row | Molecule | MIC [8] | MIC [9] | MIC [10] | MIC [13] | MIC [14] | MIC [15] | MIC ([11]; KAVA) | MIC [1] | MIC [2] | MIC [3] | MIC [4] | MIC [5] | MIC ([6]; ATCC 33591) | MIC [7] | further results
1 | C=C(NC(=O)[C@@H](NC(=O)[C@H](Cc1c[nH]cn1)NC(=O)[C@@H](NC(=O)[C@H](CO)NC(=O)[C@@H]1CS[C@@H](C)[C@H]2NC(=O)[C@H](C)NC(=O)[C@H](NC(=O)[C@H](CCCCN)NC(=O)[C@H](CCSC)NC(=O)[C@H](CC(N)=O)NC(=O)[C@@H]3CS[C@@H](C)[C@@H](NC(=O)[C@H](CCCCN)NC(=O)[C@@H]4CS[C@@H](C)[C@@H](NC(=O)[C@@H]5CSC[C@@H](NC(=O)/C(=C/C)NC(=O)[C@@H](N)[C@@H](C)CC)C(=O)N[C@@H]([C@@H](C)CC)C(=O)NC(=C)C(=O)N[C@@H](CC(C)C)C(=O)N5)C(=O)N5CCC[C@H]5C(=O)NCC(=O)N4)C(=O)NCC(=O)N[C@@H](C)C(=O)N[C@@H](CC(C)C)C(=O)N[C@@H](CCSC)C(=O)NCC(=O)N3)[C@H](C)SC[C@H](NC2=O)C(=O)N[C@@H](CC(N)=O)C(=O)N1)[C@@H](C)CC)C(C)C)C(=O)N[C@@H](CCCCN)C(=O)O [NisinZ, reference compound] | – | – | – | – | – | – | – | – | – | – | – | – | – | – | MIC ([1]; SH 4015 (S. haemolyticus)): 1.6 to 3.1 µg/mL; MIC ([2]; SH 4016 (S. haemolyticus)): 1.6 to 3.1 µg/mL; MIC ([3]; Sa 3242 (S. aureus)): 3.1 µg/mL (≈ 0.931 µM); MIC ([4]; Sa 3328 (S. aureus)): 0.8 µg/mL (≈ 0.24 µM); MIC ([5]; Sa3323 (S. aureus)): 6.25 µg/mL (≈ 1.88 µM); MIC ([6]; Sa ATCC 33591 (S. aureus)): 0.8 µg/mL (≈ 0.24 µM); MIC ([7]; Sa3324 (S. aureus)): 1.6 µg/mL (≈ 0.48 µM); MIC ([8]; SP 4013 (S. pseudointermedius)): 0.4 µg/mL (≈ 0.12 µM); MIC ([9]; SP 4012 (S. pseudointermedius)): 0.4 µg/mL (≈ 0.12 µM); MIC ([10]; SP 4014 (S. pseudointermedius)): 0.4 µg/mL (≈ 0.12 µM)
2 | C/C=C(\NC(=O)c1csc(-c2csc(-c3ccc4c(n3)-c3csc(n3)[C@H]([C@@H](C)O)NC(=O)c3csc(n3)[C@H](C(C)C)NC(=O)c3csc(n3)/C(=C/C)NC(=O)[C@H]([C@@H](C)O)NC(=O)c3csc-4n3)n2)n1)C(=O)NC[C@@H](C)O [micrococcinP1, Micrococcin P1, reference compound] | 0.4 µg/mL (≈ 0.35 µM) | 0.4 µg/mL (≈ 0.35 µM) | 0.8 µg/mL (≈ 0.699 µM) | – | – | – | – | – | – | – | – | – | – | – | MIC [11]: > 12.5 µg/mL; MIC ([1]; Staphylococcus haemolyticus): 1.6 µg/mL (≈ 1.4 µM); MIC ([2]; Staphylococcus haemolyticus): 1.6 µg/mL (≈ 1.4 µM); MIC ([3]; Staphylococcus aureus, 3242): 0.2 µg/mL (≈ 0.175 µM); MIC ([4]; Staphylococcus aureus, 3328): 0.1 µg/mL (≈ 0.0874 µM); MIC ([5]; Staphylococcus aureus): 0.1 µg/mL (≈ 0.0874 µM); MIC ([6]; Staphylococcus aureus, ATCC33591): 0.4 µg/mL (≈ 0.35 µM); MIC ([7]; Staphylococcus aureus): 0.1 µg/mL (≈ 0.0874 µM)
3 | MIKKFPNPYTLAAKLTTYEINWYKQQYGRYPWERPVA [EntEJ97short] | 3.1 µg/mL | 3.1 µg/mL | 1.6 to 3.1 µg/mL | 1.6 to 31 µg/mL | 1.6 µg/mL | 0.1 to 0.4 µg/mL | >50 µg/mL | 1.6 to 3.1 µg/mL | 1.6 to 3.1 µg/mL | 12.5 µg/mL | 3.1 µg/mL | 3.1 to 6.25 µg/mL | >50 µg/mL | 6.25 µg/mL | MIC [12]; 2: 12.5 to 25 µg/mL; MIC [16]: >50 µg/mL
4 | MKFKFNPTGTIVKKLTQYEINWYKQQYGRYPWERPVA [K1-EJ hybrid] | 12.5 µg/mL | 25 µg/mL | 12.5 µg/mL | 12.5 to 25 µg/mL | 1.6 to 3.1 µg/mL | 0.1 to 0.4 µg/mL | >50 µg/mL | 0.8 µg/mL | 0.8 to 1.6 µg/mL | 3.1 µg/mL | 3.1 µg/mL | 3.2 to 6.25 µg/mL | >50 µg/mL | 6.25 µg/mL | MIC ([12]; E. faecium (2), Table 6B): <0.05 to 0.4 µg/mL; MIC [16]: 6.25 to 25 µg/mL
5 | MLAKIKAMIKKFPNPYTLAAKLTTYEIAWFKNKHGYYPWEIPRC [EJ-K1 hybrid] | >50 µg/mL | >50 µg/mL | >50 µg/mL | 50 µg/mL | 25 to 50 µg/mL | 3.2 to 6.3 µg/mL | >50 µg/mL | 50 µg/mL | 50 µg/mL | 12.5 µg/mL | 6.25 µg/mL | 3.2 to 6.25 µg/mL | >50 µg/mL | 12.5 µg/mL | MIC [12]; 2: 3.15 µg/mL
6 | garvicin ML | – | – | – | – | – | – | – | – | – | – | – | – | – | – | sensitivity of EntEJ97/EntK1 resistant mutants to non-related bacteriocin [17]: as sensitive as the WT strains
7 | B1 | – | – | – | – | – | – | 6.25 to 12.5 µg/mL | – | – | – | – | – | – | – | MIC ([1]; SH 4015 (S. haemolyticus)): 6.25 µg/mL; MIC ([2]; SH 4016 (S. haemolyticus)): 6.25 µg/mL; MIC ([3]; Sa 3242 (S. aureus)): 3.1 µg/mL; MIC ([4]; Sa 3328 (S. aureus)): 3.1 µg/mL; MIC ([5]; Sa3323 (S. aureus)): 6.25 µg/mL; MIC ([6]; Sa ATCC 33591 (S. aureus)): 12.5 µg/mL; MIC ([7]; Sa3324 (S. aureus)): 6.25 µg/mL; MIC ([8]; SP 4013 (S. pseudointermedius)): 6.25 µg/mL; MIC ([9]; SP 4012 (S. pseudointermedius)): 6.25 µg/mL; MIC ([10]; SP 4014 (S. pseudointermedius)): 6.25 µg/mL
